Activity calls are given as the source filed them. The calls are words filed in the database; no cut-off is given here.
Key:
[1] = Stability of compound in water/acetonitrile solution incubated for 24 hrs by HPLC analysis; format: physicochemical; conditions: buffer
[2] = molecular target: Phosphatidylinositol 4,5-bisphosphate 3-kinase catalytic subunit alpha isoform (Homo sapiens, UniProt P42336); experiment: Inhibition of recombinant PI3Kalpha (unknown origin) using PIP2:3PS as substrate preincubated for 20 mins followed by ATP addition and measured after 1 hrs by ADP-Glo reagent based assay
Chain of Phosphatidylinositol 4,5-bisphosphate 3-kinase catalytic subunit alpha isoform (P42336 whole entry, canonical isoform): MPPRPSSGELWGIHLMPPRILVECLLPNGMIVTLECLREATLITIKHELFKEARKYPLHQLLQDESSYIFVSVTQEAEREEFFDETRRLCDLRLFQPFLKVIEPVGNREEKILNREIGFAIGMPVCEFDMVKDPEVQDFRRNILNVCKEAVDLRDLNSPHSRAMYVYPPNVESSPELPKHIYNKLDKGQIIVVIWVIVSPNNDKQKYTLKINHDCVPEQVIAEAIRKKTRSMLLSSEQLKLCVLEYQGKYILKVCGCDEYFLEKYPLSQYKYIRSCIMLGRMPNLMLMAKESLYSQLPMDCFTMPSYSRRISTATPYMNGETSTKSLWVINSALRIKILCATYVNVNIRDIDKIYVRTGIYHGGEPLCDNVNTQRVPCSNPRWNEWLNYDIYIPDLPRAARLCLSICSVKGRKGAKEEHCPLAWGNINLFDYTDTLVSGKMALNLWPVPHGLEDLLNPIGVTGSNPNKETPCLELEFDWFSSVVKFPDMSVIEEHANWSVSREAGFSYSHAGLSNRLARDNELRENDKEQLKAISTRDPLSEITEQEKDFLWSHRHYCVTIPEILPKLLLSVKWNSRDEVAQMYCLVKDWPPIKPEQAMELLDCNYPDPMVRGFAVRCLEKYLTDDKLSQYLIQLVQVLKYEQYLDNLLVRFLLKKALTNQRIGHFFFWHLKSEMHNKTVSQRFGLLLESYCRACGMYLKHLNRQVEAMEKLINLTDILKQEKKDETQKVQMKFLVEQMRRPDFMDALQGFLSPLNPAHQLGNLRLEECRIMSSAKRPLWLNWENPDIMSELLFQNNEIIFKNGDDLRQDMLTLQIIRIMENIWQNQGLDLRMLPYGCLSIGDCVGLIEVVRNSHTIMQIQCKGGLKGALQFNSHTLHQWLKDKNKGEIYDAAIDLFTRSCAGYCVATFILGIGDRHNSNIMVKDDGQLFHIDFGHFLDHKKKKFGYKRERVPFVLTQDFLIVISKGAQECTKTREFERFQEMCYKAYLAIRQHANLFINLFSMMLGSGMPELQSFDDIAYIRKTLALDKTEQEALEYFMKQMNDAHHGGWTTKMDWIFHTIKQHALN

[3] = molecular target: Phosphatidylinositol 4,5-bisphosphate 3-kinase catalytic subunit gamma isoform (Homo sapiens, UniProt P48736); experiment: Inhibition of recombinant PI3Kgamma (unknown origin) using PIP2:3PS as substrate preincubated for 20 mins followed by ATP addition and measured after 1 hrs by ADP-Glo reagent based assay
Chain of Phosphatidylinositol 4,5-bisphosphate 3-kinase catalytic subunit gamma isoform (P48736 whole entry, canonical isoform): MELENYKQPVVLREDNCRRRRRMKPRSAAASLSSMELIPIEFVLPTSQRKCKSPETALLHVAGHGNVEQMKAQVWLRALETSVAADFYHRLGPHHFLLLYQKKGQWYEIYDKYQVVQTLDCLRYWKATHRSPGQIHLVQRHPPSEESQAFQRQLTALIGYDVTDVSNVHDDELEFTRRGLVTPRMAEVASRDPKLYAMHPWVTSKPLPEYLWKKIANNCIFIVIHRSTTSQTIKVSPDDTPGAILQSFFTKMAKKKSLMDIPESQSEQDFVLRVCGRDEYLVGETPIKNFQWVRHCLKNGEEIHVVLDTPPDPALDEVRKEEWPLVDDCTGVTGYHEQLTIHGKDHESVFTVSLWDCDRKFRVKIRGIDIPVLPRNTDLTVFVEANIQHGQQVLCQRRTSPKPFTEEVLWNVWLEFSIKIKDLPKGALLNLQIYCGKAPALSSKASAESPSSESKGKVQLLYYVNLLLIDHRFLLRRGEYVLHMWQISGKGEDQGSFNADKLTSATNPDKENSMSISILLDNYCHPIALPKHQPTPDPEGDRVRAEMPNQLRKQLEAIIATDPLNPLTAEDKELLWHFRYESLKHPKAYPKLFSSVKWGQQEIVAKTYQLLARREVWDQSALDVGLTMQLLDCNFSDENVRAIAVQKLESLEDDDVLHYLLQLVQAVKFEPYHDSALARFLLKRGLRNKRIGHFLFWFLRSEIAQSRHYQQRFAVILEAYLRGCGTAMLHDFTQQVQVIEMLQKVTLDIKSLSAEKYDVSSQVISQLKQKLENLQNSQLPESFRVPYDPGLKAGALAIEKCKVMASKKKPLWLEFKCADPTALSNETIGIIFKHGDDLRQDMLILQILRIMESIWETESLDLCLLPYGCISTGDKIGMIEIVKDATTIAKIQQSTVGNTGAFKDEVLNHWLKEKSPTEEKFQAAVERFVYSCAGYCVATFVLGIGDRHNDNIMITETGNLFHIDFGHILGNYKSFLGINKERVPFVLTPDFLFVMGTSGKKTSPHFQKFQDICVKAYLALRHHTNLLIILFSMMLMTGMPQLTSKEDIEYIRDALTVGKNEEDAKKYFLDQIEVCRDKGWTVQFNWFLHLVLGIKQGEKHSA

SU-DHL-6 = experiment: Irreversible inhibition of AKT phosphorylation in human SU-DHL-6 cells preincubated for 12 hrs followed by compound washout and measured upto 72 hrs by Western blot analysis; format: cell-based
[4] = molecular target: T1, Phosphatidylinositol 4,5-bisphosphate 3-kinase catalytic subunit delta isoform (Homo sapiens) (UniProt O00329); experiment: Covalent inhibition of PI3Kdelta (unknown origin) using PIP2:3PS as substrate assessed as second order rate constant (Kinact/Ki ratio) incubated upto 180 mins in presence of ATP by ADP-Glo reagent based assay
T1 sequence (whole entry): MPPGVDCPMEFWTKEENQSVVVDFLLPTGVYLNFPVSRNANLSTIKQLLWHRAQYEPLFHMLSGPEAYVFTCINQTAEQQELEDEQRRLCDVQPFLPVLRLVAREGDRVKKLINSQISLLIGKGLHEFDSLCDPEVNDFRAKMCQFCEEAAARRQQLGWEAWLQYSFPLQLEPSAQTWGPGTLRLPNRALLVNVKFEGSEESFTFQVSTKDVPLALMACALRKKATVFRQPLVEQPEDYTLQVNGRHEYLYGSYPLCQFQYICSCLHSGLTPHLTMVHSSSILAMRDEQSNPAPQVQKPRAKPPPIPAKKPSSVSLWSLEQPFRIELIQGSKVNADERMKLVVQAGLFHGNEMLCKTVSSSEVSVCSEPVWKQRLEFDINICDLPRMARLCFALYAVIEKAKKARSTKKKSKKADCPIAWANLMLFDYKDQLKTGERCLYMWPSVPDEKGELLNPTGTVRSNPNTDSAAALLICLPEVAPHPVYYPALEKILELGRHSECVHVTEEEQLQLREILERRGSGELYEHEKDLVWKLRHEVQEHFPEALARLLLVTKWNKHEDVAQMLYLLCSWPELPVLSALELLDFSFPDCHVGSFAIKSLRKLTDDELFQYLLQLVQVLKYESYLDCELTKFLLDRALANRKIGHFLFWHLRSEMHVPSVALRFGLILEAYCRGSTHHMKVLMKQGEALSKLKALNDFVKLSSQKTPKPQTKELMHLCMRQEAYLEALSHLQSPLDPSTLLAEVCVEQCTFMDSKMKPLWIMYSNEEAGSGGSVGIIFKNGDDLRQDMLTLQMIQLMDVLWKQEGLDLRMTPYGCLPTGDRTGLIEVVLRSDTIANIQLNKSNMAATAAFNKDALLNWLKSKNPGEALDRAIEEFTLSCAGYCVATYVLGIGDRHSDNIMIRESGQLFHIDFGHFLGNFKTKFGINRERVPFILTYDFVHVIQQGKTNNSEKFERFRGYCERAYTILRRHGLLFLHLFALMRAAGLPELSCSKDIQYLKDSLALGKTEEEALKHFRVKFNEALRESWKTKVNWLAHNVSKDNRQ

COc1ncc(-c2ccc3ncnc(N[C@H]4CCN(C(=O)C5CCOCC5)C4)c3n2)cc1C(=O)Oc1ccccc1
Stability [1]: Stable
IC50 [2]: 610 nM
IC50 [3]: 94 nM
inhibition (SU-DHL-6): Active
Ratio [4]: 1.76 10^5/M/s
